Test results taken from patent publication US20110250254A1, “ANTIMICROBIAL COMPOSITIONS AND USES” (priority 2008, published 2011).
Read-outs that look alike come from different tables or passages of the source.

Columns and labels:
Type in all cases: cell-based
E. faecalis = assay: Static biofilm model, safranine staining; conditions: 4 h incubation
Method: (§1) According to the static biofilm model, a given thiophenone 200 μmol/L was dissolved in 500 μl absolute ethanol and applied to wells of a standard 24 well microtiter plate. The ethanol was evaporated from the wells in a laminar air sterile work bench at room temperature so as to leave a coating of the thiophenone in the well. A sample of bacteria was then added to the well and incubated for a given period of time. After incubation, the percentage of bacteria remaining was assessed by safranine staining of the biofilm. Bound safranine was released by acetic acid and optical density was measured in Synergy HT Multi-Detection Microplate Reader and compared to a control.

Pseudoalteromonas = assay: Static biofilm model, safranine staining; conditions: 4 h incubation
Method: as §1

S. epidermidis [1] = assay: Static biofilm model, safranine staining; conditions: 6 h incubation, thiophenone 200 μmol/L coating
Method: as §1

V. harveyi [2] = assay: Static biofilm model, safranine staining; conditions: 4 h incubation
Method: as §1

S. epidermidis [3] = assay: Shaking biofilm model (200 rpm), safranine staining; conditions: Staphylococcus epidermidis, S. epidermidis, read-out: Shaking biofilm model % Remaining
Method: as §1
(§2) According to the shaking biofilm model, the microtiter plates were shaken (200 rpm) in a Minitron Incubator Shaker during biofilm formation.

V. harveyi [4] = assay: as above
Method: as §1, §2

[5] = test system: Vibrio harveyi BB886 (AI-1 reporter); assay: Bioluminescence assay of AI-1 quorum-sensing; conditions: compared with the corresponding furanone compound
Method: (§3) The effect of (Z)-5-(bromomethylene) thiophen-2(5H)-one on AI-1 and AI-2 quorum-sensing by bacteria was tested in a bioluminescence assay as follows:
(§4) Inhibition of quorum sensing was assessed as the ability of the furanone to reduce bioluminescence induced by cell free bacterial culture supernatant containing either AI-1 or AI-2 signal molecules. Vibrio harveyi BB886 was used as an AI-1 reporter and Vibrio harveyi BB170 was used as reporter of AI-2 communication.

[6] = test system: Vibrio harveyi BB170 (AI-2 reporter); assay: Bioluminescence assay of AI-2 quorum-sensing; conditions: compared with the corresponding furanone compound
Method: as §3, §4

O=C1C=C/C(=C/Br)S1 [Thio101, (Z)-5-(bromomethylene) thiophen-2(5H)-one]
Static biofilm model % Remaining (E. faecalis; coating): 66%
Static biofilm model % Remaining (E. faecalis; in medium): 32%
Static biofilm model % Remaining (Pseudoalteromonas; coating): 52%
Static biofilm model % Remaining (Pseudoalteromonas; in medium): 36%
Static biofilm model % Remaining (S. epidermidis [1]): 28%
Static biofilm model % Remaining (V. harveyi [2]; coating): 20%
Static biofilm model % Remaining (V. harveyi [2]; in medium): 9%
activity at 200 µM (S. epidermidis [3]; 6 h incubation): 13%
activity at 200 µM (S. epidermidis [3]; 20 h incubation): 15%
Shaking biofilm model % Remaining (V. harveyi [4]; 8 h incubation): 54%
Shaking biofilm model % Remaining (V. harveyi [4]; 18 h incubation): 56%
Inhibition of AI-1 quorum-sensing [5]: considerably more effective
Inhibition of AI-2 quorum-sensing [6]: considerably more effective
